Laboratory results from US20220401514A1, “ANTIMICROBIAL, BACTERIOPHAGE-DERIVED POLYPEPTIDES AND THEIR USE AGAINST GRAM-NEGATIVE AND ACID-FAST BACTERIA” (CONTRAFECT CORPORATION, priority 2019, published 2022).

What was measured:
[1] = test system: P. aeruginosa strain CFS-1292; assay: Checkerboard assay (FICI) with antibiotics, P. aeruginosa; assay type: cell-based, Pseudomonas aeruginosa; conditions: for Antibiotic FIC: P. aeruginosa CFS-1292; for Antibiotic MIC in checkerboard: P. aeruginosa CFS-1292, CAA + […] human serum
Experimental: Any known method to assess MIC may be used.
Checkerboards are constructed by first preparing columns of e.g., a 96-well polypropylene microtiter plate, wherein each well has the same amount of antibiotic diluted 2-fold along the horizontal axis. […] Bacteria are added to the drug combinations at concentrations of 1×10^5 […] in CAA, for example, with or without human serum or pulmonary surfactant. […] Summation fractional inhibitory concentrations (ΣFICs) are calculated for each drug and the minimum ΣFIC value (ΣFICmin) is used to determine the effect of the Chp peptide/antibiotic combination.
(§1) Checkerboard assays. […] Checkerboards were constructed by first preparing columns of a 96-well polypropylene microtiter plate, in which each well had the same amount of antibiotic diluted 2-fold along the horizontal axis. […] Summation fractional inhibitory concentration index (FICIs) were calculated for each drug and the minimum FICI was used to determine synergy. FICIs were calculated as follows: FICI=FIC A+FIC B, where FIC A is the MIC of each antibiotic in the combination/MIC of the each antibiotic alone, and FIC B is the MIC of each Chp peptide in the combination/MIC of each Chp peptide alone. The combination is considered synergistic when the FICI is ≤0.5, strongly additive when the FICI is >0.5 to <1, additive with the FICI is 1-<2, and antagonistic when the FICI is ≥2.
In the checkerboard assay, fractional inhibitory concentration index (FICI) values are calculated.

[2] = test system: Acinetobacter baumannii strain 30; assay: Checkerboard assay (FICI) with antibiotics, A. baumannii; assay type: cell-based; conditions: checkerboard
Experimental: as §1
The results are shown below in Tables 22-27.

[3] = test system: Klebsiella pneumoniae strain 1139; assay: Checkerboard assay (FICI) with antibiotics, K. pneumoniae; assay type: cell-based
Experimental: as §1

[4] = test system: carbapenem-resistant P. aeruginosa clinical isolate CFS-1292; assay: MIC by modified CLSI broth microdilution against P. aeruginosa CFS-1292 (CAA, CAA + human serum); assay type: cell-based, Pseudomonas aeruginosa; conditions: for MIC (μg/mL) against CFS-1292 in 100% CAA (1st run/2nd run): 1st run or single value
M. smegmatis = assay: 45 hr MIC against M. smegmatis (NTM), Mueller Hinton broth; assay type: cell-based, Mycobacterium smegmatis; conditions: M. smegmatis MC^2 155, Run #1
[5] = checkerboard, in combination with Chp4-M1
[6] = checkerboard, in combination with Chp6-M1
[7] = checkerboard, in combination with Chp10-M1
[8] = checkerboard, in combination with Unp2-M1

NCC[C@H](O)C(=O)N[C@@H]1C[C@H](N)[C@@H](O[C@H]2O[C@H](CN)[C@@H](O)[C@H](O)[C@H]2O)[C@H](O)[C@H]1O[C@H]1O[C@H](CO)[C@@H](O)[C@H](N)[C@H]1O [Amikacin]
Antibiotic FIC ([1]; combined with Chp2-M1): 0.25 | Antibiotic MIC in checkerboard ([1]; combined with Chp2-M1): 0.5 µg/mL | Antibiotic FIC ([1]; combined with Chp2): 0.25 | Antibiotic MIC in checkerboard ([1]; combined with Chp2): 0.5 µg/mL | Antibiotic FIC ([1]; combined with Chp4-M1): 0.0625 | Antibiotic FIC ([1]; combined with Chp6-M1): 0.25 | Antibiotic MIC in checkerboard ([1]; combined with Chp6-M1): 0.5 µg/mL | Antibiotic FIC ([1]; combined with Chp10-M1): 0.125 | Antibiotic MIC in checkerboard ([1]; combined with Chp10-M1): 0.25 µg/mL | Antibiotic FIC ([1]; combined with Unp2-M1): 0.25 | Antibiotic MIC in checkerboard ([1]; combined with Unp2-M1): 0.5 µg/mL | Antibiotic FIC ([2]; in combination with Chp2): 0.25 | Antibiotic FIC ([2]; in combination with Chp2-M1): 0.5 | Antibiotic FIC ([2]; in combination with Chp4-M1): 0.5 | Antibiotic FIC ([2]; in combination with Chp6-M1): 0.5 | Antibiotic FIC ([2]; in combination with Chp10-M1): 0.5 | Antibiotic FIC ([2]; in combination with Unp2-M1): 0.5

CC[C@H]1OC(=O)[C@H](C)[C@@H](O[C@H]2C[C@@](C)(OC)[C@@H](O)[C@H](C)O2)[C@H](C)[C@@H](O[C@@H]2O[C@H](C)C[C@H](N(C)C)[C@H]2O)[C@](C)(O)C[C@@H](C)CN(C)[C@H](C)[C@@H](O)[C@]1(C)O [Azithromycin]
Antibiotic FIC ([1]; combined with Chp2): 0.25 | Antibiotic FIC ([1]; combined with Chp4-M1): 0.25 | Antibiotic FIC ([1]; combined with Chp6-M1): 0.25 | Antibiotic FIC [3, 5]: 0.25 | Antibiotic MIC [3, 5]: 1 µg/mL | Antibiotic FIC [3, 6]: 0.5 | Antibiotic MIC [3, 6]: 1 µg/mL | Antibiotic MIC [3, 7]: 1 µg/mL | Antibiotic MIC [3, 8]: 1 µg/mL | Antibiotic MIC in checkerboard ([3]; combined with Chp2): 1 µg/mL | Antibiotic FIC ([3]; combined with Chp2-M1): 0.25 | Antibiotic MIC in checkerboard ([3]; combined with Chp2-M1): 1 µg/mL | Antibiotic FIC ([2]; in combination with Chp2): 0.5 | Antibiotic MIC ([2]; in combination with Chp2): 0.5 µg/mL | Antibiotic FIC ([2]; in combination with Chp2-M1): 0.25 | Antibiotic MIC ([2]; in combination with Chp2-M1): 0.5 µg/mL | Antibiotic FIC ([2]; in combination with Chp4-M1): 0.25 | Antibiotic MIC ([2]; in combination with Chp4-M1): 0.5 µg/mL | Antibiotic FIC ([2]; in combination with Chp6-M1): 0.25 | Antibiotic MIC ([2]; in combination with Chp6-M1): 0.5 µg/mL | Antibiotic FIC ([2]; in combination with Chp10-M1): 0.5 | Antibiotic MIC ([2]; in combination with Chp10-M1): 0.5 µg/mL | Antibiotic FIC ([2]; in combination with Unp2-M1): 0.5 | Antibiotic MIC ([2]; in combination with Unp2-M1): 0.5 µg/mL

C[C@H]1[C@H](NC(=O)/C(=N\OC(C)(C)C(=O)O)c2csc(N)n2)C(=O)N1S(=O)(=O)O [Aztreonam]
Antibiotic FIC ([1]; combined with Chp2-M1): 0.5 | Antibiotic FIC ([1]; combined with Chp2): 0.25 | Antibiotic FIC ([1]; combined with Chp4-M1): 0.25 | Antibiotic FIC ([1]; combined with Chp6-M1): 0.25 | Antibiotic FIC ([1]; combined with Chp10-M1): 0.25 | Antibiotic FIC [3, 5]: 0.5 | Antibiotic MIC [3, 5]: 0.007812 µg/mL | Antibiotic FIC [3, 6]: 0.25 | Antibiotic MIC [3, 6]: 0.007812 µg/mL | Antibiotic FIC [3, 7]: 0.25 | Antibiotic MIC [3, 7]: 0.007812 µg/mL | Antibiotic FIC [3, 8]: 0.007812 | Antibiotic MIC [3, 8]: 0.007812 µg/mL | Antibiotic FIC ([3]; combined with Chp2): 0.5 | Antibiotic MIC in checkerboard ([3]; combined with Chp2): 0.007812 µg/mL | Antibiotic FIC ([3]; combined with Chp2-M1): 0.5 | Antibiotic MIC in checkerboard ([3]; combined with Chp2-M1): 0.007812 µg/mL | Antibiotic FIC ([2]; in combination with Chp2): 0.25 | Antibiotic MIC ([2]; in combination with Chp2): 8 µg/mL | Antibiotic FIC ([2]; in combination with Chp2-M1): 0.25 | Antibiotic MIC ([2]; in combination with Chp2-M1): 8 µg/mL | Antibiotic FIC ([2]; in combination with Chp4-M1): 0.25 | Antibiotic MIC ([2]; in combination with Chp4-M1): 16 µg/mL | Antibiotic FIC ([2]; in combination with Chp6-M1): 0.25 | Antibiotic MIC ([2]; in combination with Chp6-M1): 8 µg/mL | Antibiotic FIC ([2]; in combination with Chp10-M1): 0.25 | Antibiotic MIC ([2]; in combination with Chp10-M1): 8 µg/mL | Antibiotic FIC ([2]; in combination with Unp2-M1): 0.25 | Antibiotic MIC ([2]; in combination with Unp2-M1): 16 µg/mL

C[C@H]1COc2c(N3CCN(C)CC3)c(F)cc3c(=O)c(C(=O)O)cn1c23 [Levofloxacin]
Antibiotic FIC ([1]; combined with Chp2-M1): 0.25 | Antibiotic FIC ([1]; combined with Chp2): 0.25 | Antibiotic FIC ([1]; combined with Chp4-M1): 0.5 | Antibiotic FIC ([1]; combined with Chp6-M1): 0.25 | Antibiotic FIC ([1]; combined with Chp10-M1): 0.25 | Antibiotic FIC ([1]; combined with Unp2-M1): 0.25 | Antibiotic FIC [3, 5]: 0.25 | Antibiotic MIC [3, 5]: 0.007812 µg/mL | Antibiotic FIC [3, 6]: 0.25 | Antibiotic MIC [3, 6]: 0.007812 µg/mL | Antibiotic FIC [3, 7]: 0.125 | Antibiotic MIC [3, 7]: 0.007812 µg/mL | Antibiotic FIC [3, 8]: 0.01562 | Antibiotic MIC [3, 8]: 0.01562 µg/mL | Antibiotic FIC ([3]; combined with Chp2): 0.25 | Antibiotic MIC in checkerboard ([3]; combined with Chp2): 0.007812 µg/mL | Antibiotic FIC ([3]; combined with Chp2-M1): 0.25 | Antibiotic MIC in checkerboard ([3]; combined with Chp2-M1): 0.007812 µg/mL | Antibiotic FIC ([2]; in combination with Chp2): 0.25 | Antibiotic FIC ([2]; in combination with Chp2-M1): 0.25 | Antibiotic FIC ([2]; in combination with Chp4-M1): 0.25 | Antibiotic FIC ([2]; in combination with Chp6-M1): 0.25 | Antibiotic FIC ([2]; in combination with Chp10-M1): 0.25 | Antibiotic FIC ([2]; in combination with Unp2-M1): 0.25

CCN1CCN(C(=O)N[C@@H](C(=O)N[C@@H]2C(=O)N3[C@@H]2SC(C)(C)[C@@H]3C(=O)O)c2ccccc2)C(=O)C1=O [Piperacillin]
Antibiotic FIC ([1]; combined with Chp2-M1): 0.125 | Antibiotic MIC in checkerboard ([1]; combined with Chp2-M1): 1 µg/mL | Antibiotic FIC ([1]; combined with Chp2): 0.5 | Antibiotic MIC in checkerboard ([1]; combined with Chp2): 4 µg/mL | Antibiotic FIC ([1]; combined with Chp4-M1): 0.5 | Antibiotic MIC in checkerboard ([1]; combined with Chp4-M1): 8 µg/mL | Antibiotic FIC ([1]; combined with Chp6-M1): 0.25 | Antibiotic MIC in checkerboard ([1]; combined with Chp6-M1): 2 µg/mL | Antibiotic FIC ([1]; combined with Chp10-M1): 0.25 | Antibiotic MIC in checkerboard ([1]; combined with Chp10-M1): 2 µg/mL | Antibiotic FIC ([1]; combined with Unp2-M1): 0.25 | Antibiotic MIC in checkerboard ([1]; combined with Unp2-M1): 2 µg/mL | Antibiotic FIC ([2]; in combination with Chp2): 0.25 | Antibiotic MIC ([2]; in combination with Chp2): 8 µg/mL | Antibiotic FIC ([2]; in combination with Chp2-M1): 0.25 | Antibiotic MIC ([2]; in combination with Chp2-M1): 8 µg/mL | Antibiotic FIC ([2]; in combination with Chp4-M1): 0.25 | Antibiotic MIC ([2]; in combination with Chp4-M1): 8 µg/mL | Antibiotic FIC ([2]; in combination with Chp6-M1): 0.5 | Antibiotic MIC ([2]; in combination with Chp6-M1): 16 µg/mL | Antibiotic FIC ([2]; in combination with Chp10-M1): 0.25 | Antibiotic MIC ([2]; in combination with Chp10-M1): 4 µg/mL | Antibiotic FIC ([2]; in combination with Unp2-M1): 0.25 | Antibiotic MIC ([2]; in combination with Unp2-M1): 8 µg/mL

Gentamicin
Antibiotic FIC ([1]; combined with Chp2): 0.5 | Antibiotic FIC ([1]; combined with Unp2-M1): 0.25 | Antibiotic FIC ([2]; in combination with Chp2): 0.25 | Antibiotic MIC ([2]; in combination with Chp2): 0.03125 µg/mL | Antibiotic FIC ([2]; in combination with Chp2-M1): 0.5 | Antibiotic MIC ([2]; in combination with Chp2-M1): 0.03125 µg/mL | Antibiotic FIC ([2]; in combination with Chp4-M1): 0.5 | Antibiotic MIC ([2]; in combination with Chp4-M1): 0.03125 µg/mL | Antibiotic FIC ([2]; in combination with Chp6-M1): 0.5 | Antibiotic MIC ([2]; in combination with Chp6-M1): 0.03125 µg/mL | Antibiotic FIC ([2]; in combination with Chp10-M1): 0.01562 | Antibiotic MIC ([2]; in combination with Chp10-M1): 0.0009766 µg/mL | Antibiotic FIC ([2]; in combination with Unp2-M1): 0.5 | Antibiotic MIC ([2]; in combination with Unp2-M1): 0.03125 µg/mL

MKKRTKALLPYAVFIILSFQLTLLTALFMYYHYTF [Lvp2]
MIC (μg/mL) against CFS-1292 in 100% CAA (1st run/2nd run) [4]: 32 µg/mL | MIC (μg/mL) against CFS-1292 in CAA + […] human serum [4]: 8 µg/mL

MRKKMHKSLDKRVFNRTAKKSKKINVNPVVYRGGIRL [CDL907]
45 hr MIC (M. smegmatis): >128 µg/mL | MIC (μg/mL) against CFS-1292 in 100% CAA (1st run/2nd run) [4]: 8 µg/mL | MIC (μg/mL) against CFS-1292 in CAA + […] human serum [4]: 0.5 µg/mL
